Measurements taken from paper PMC9863987, “Identification of Aryl Polyamines Derivatives as Anti-Trypanosoma cruzi Agents Targeting Iron Superoxide Dismutase” (Pharmaceutics, 2022).

Tests used:
[1] = system: T. cruzi Arequipa strain trypomastigotes; assay: Screening against bloodstream trypomastigotes, Arequipa strain (resazurin); assay type: cell-based, Trypanosoma cruzi
[2] = Clinical analysis of heart, kidney and liver markers in serum of treated mice; assay type: in vivo, BALB/c mice; conditions: n = 3
Description: (§1) Infection was carried out by intraperitoneal inoculation of 5 × 10^5 BTs of T. cruzi Arequipa strain per mouse in 0.2 mL PBS [26]. The infection was monitored and on the 10th day post-infection (dpi), when BTs were visible in the bloodstream, the infection was confirmed.
(§2) Mice were divided into four groups (n = 3 per group): 0, negative control group (uninfected and untreated mice); I, positive control group (infected and untreated mice); II, BZN group (mice infected and treated with BZN); III, 15 group (mice infected and treated with 15).
(§3) The treatment for mice treated in the acute and chronic CD began when the infection was confirmed (10th dpi) and was stablished that the animals had entered the chronic CD (75th dpi), respectively (Scheme 1). Compound 15 and BZN were orally administered for 5 consecutive days at a dose of 20 mg·Kg^−1·day^−1.
Blood samples were collected in several dpi (Scheme 1) and processed according the method previously reported to obtain serum. Serum samples were then aliquoted to ELISA test and clinical analysis.
Heart, kidney and liver markers were measured from blood in several dpi (Scheme 1) with Cromakit® as previously reported. Mean and standard deviations were calculated using the levels measured for different populations of sera (n = 15, n = 3), and the confidence interval were also calculated based on a confidence level of 95% (100 × (1 − α) = 100 × (1 − 0.05)).

[3] = system: Trypanosoma cruzi epimastigotes; assay: Excreted metabolites by 1H NMR; assay type: cell-based; conditions: epimastigotes at IC25 concentration, 72 h; succinate and pyruvate most increased
Description: 5 × 10^5 mL^−1 epimastigotes culture medium were treated by adding the compounds at IC25 concentrations in 25 cm^2 cell culture flasks for 72 h. Untreated controls were also included in triplicate. Cultures were then centrifuged and filtered, and the metabolites of the supernatants were measured by ^1H NMR (VARIAN DIRECT DRIVE 500 MHz […]) with AutoX probe, D2O as solvent and 2,2-dimethyl-2-silapentane-5-sulphonate as the reference signal. Analyses were conducted as previously reported.

T. cruzi Arequipa strain [4] = assay: Infection reactivation by cyclophosphamide immunosuppression in infected BALB/c mice; assay type: in vivo, Trypanosoma cruzi; conditions: oral 20 mg/Kg/day for 5 days, related to control group
T. cruzi Arequipa strain [5] = assay: Monitoring of acute parasitaemia by counting in infected BALB/c mice; assay type: in vivo, Trypanosoma cruzi; conditions: acute infection
Description: All animal work (Scheme 1) and maintenance was performed under RD53/2013 and approved by the Ethics Committee on Animal Experimentation (CEEA) of the University of Granada, Spain. Female BALB/c mice (aged 10–12 weeks and 20–22 g) were used in the subsequent in vivo assays.
as §1, §2, §3
[…]. The fresh blood microscopic examination was performed from the 7th day until the day when parasitaemia was not detected (Scheme 1).

[6] = system: T. cruzi Tulahuen strain epimastigotes; assay: Screening against extracellular epimastigotes, Tulahuen strain (resazurin); assay type: cell-based, Trypanosoma cruzi
Description: Three different T. cruzi […] strains—MHOM/Pe/2011/Arequipa, discrete typing unit (DTU) V [26]; IRHOD/CO/2008/SN3, DTU I [27]; TINF/CH/1956/Tulahuen, DTU VI [26]—were grown at 28 °C in Gibco® RPMI 1640 Medium supplemented as previously reported, and used for in vitro screening.
Trypanocidal activity against epimastigotes was tested as previously reported. In brief, 5 × 10^5 mL^−1 epimastigotes culture medium were treated by adding the compounds in serial dilutions from 100 to 0.2 µM in 96-well plates (200 µL·well^−1) for 48 h. BZN and untreated growth control were also included in triplicate. Later, 20 μL of resazurin sodium salt (Sigma-Aldrich, St. Louis, MO, USA) was added, and the plates were incubated for another 24 h. Finally, the absorbance of the wells was measured at 570/600 nm and related to the control. The trypanocidal activity was expressed as the IC50 (inhibitory concentration 50) value using GraphPad Prism 6 software.

[7] = system: T. cruzi Tulahuen strain amastigotes; assay: Screening against intracellular amastigotes in Vero cells, Tulahuen strain (Giemsa counting); assay type: cell-based, Trypanosoma cruzi
Description: TINF/CH/1956/Tulahuen, DTU VI [26]—were grown at 28 °C in Gibco® RPMI 1640 Medium supplemented as previously reported, and used for in vitro screening. Trypanocidal activity against amastigotes was tested as previously reported. In brief, bloodstream trypomastigotes (BTs), obtained by cardiac puncture from infected BALB/c mice, were used to infect 1 × 10^4 Vero cells·well^−1 in 24-well plates with rounded coverslips at a multiplicity of infection (MOI) ratio of 10:1. After 24 h of infection, non-internalized trypomastigotes were washed and the infected cells were treated by adding the compounds in serial dilutions from 50 to 0.5 µM in […] for 72 h. BZN and untreated growth controls were also included in triplicate. Later, the number of amastigotes and infected cells were determined in Giemsa stained preparations by analysing 500 host cells randomly distributed in microscopic fields. The trypanocidal activity was expressed as the IC50 using GraphPad Prism 6 software (version 6.07).

[8] = treatment in acute phase, 16th dpi (2 days after treatment)
[9] = treatment in acute phase, necropsy day
[10] = treatment in chronic phase, 81th dpi (2 days after treatment)
[11] = treatment in chronic phase, necropsy day

c1cc2nc(c1)CNCCN(CCNCc1ccc3ccc4ccc(CNCCN5CCNCc6cccc(n6)CNCC5)nc4c3n1)CCNC2 [Compound 15]
Selectivity Index T. cruzi Arequipa Strain T ([1]; IC50 Vero cells/IC50 trypomastigotes): 409.3 | IC50 ([1]; Trypanosoma cruzi, trypomastigotes, 24 h + 4 h resazurin, mean of three ± SD): 1.6 ± 0.1 µM | ALP, variation over the range [2, 8]: = (variation ≤ 10%) | ALT/GPT, variation over the range [2, 8]: ++ (20-30% increase/decrease over the range) | AST/GOT, variation over the range [2, 8]: ++ (20-30% increase/decrease over the range) | CK-MB, variation over the range [2, 8]: -- (20-30% increase/decrease over the range) | LDH, variation over the range [2, 8]: = (variation ≤ 10%) | Total bilirubin, variation over the range [2, 8]: + (10-20% increase/decrease over the range) | Urea, variation over the range [2, 8]: - (10-20% increase/decrease over the range) | Uric acid, variation over the range [2, 8]: -- (20-30% increase/decrease over the range) | ALP, variation over the range [2, 9]: = (variation ≤ 10%) | ALT/GPT, variation over the range [2, 9]: + (10-20% increase/decrease over the range) | AST/GOT, variation over the range [2, 9]: + (10-20% increase/decrease over the range) | CK-MB, variation over the range [2, 9]: = (variation ≤ 10%) | LDH, variation over the range [2, 9]: = (variation ≤ 10%) | Total bilirubin, variation over the range [2, 9]: + (10-20% increase/decrease over the range) | Urea, variation over the range [2, 9]: = (variation ≤ 10%) | Uric acid, variation over the range [2, 9]: = (variation ≤ 10%) | ALP, variation over the range [2, 10]: = (variation ≤ 10%) | ALT/GPT, variation over the range [2, 10]: + (10-20% increase/decrease over the range) | AST/GOT, variation over the range [2, 10]: + (10-20% increase/decrease over the range) | CK-MB, variation over the range [2, 10]: - (10-20% increase/decrease over the range) | LDH, variation over the range [2, 10]: = (variation ≤ 10%) | Total bilirubin, variation over the range [2, 10]: ++ (20-30% increase/decrease over the range) | Urea, variation over the range [2, 10]: -- (20-30% increase/decrease over the range) | Uric acid, variation over the range [2, 10]: --- (30-40% increase/decrease over the range) | ALP, variation over the range [2, 11]: = (variation ≤ 10%) | ALT/GPT, variation over the range [2, 11]: = (variation ≤ 10%) | AST/GOT, variation over the range [2, 11]: = (variation ≤ 10%) | CK-MB, variation over the range [2, 11]: = (variation ≤ 10%) | LDH, variation over the range [2, 11]: = (variation ≤ 10%) | Total bilirubin, variation over the range [2, 11]: + (10-20% increase/decrease over the range) | Urea, variation over the range [2, 11]: - (10-20% increase/decrease over the range) | Uric acid, variation over the range [2, 11]: - (10-20% increase/decrease over the range) | excretion of catabolites compared with untreated parasites [3]: notably increased | reactivation of parasitaemia after immunosuppression (T. cruzi Arequipa strain [4]; treatment in the acute infection): 60% | reactivation of parasitaemia after immunosuppression (T. cruzi Arequipa strain [4]; treatment in the chronic infection (from 75th dpi)): 26% | parasitaemia reduction on the day of maximum parasitaemia (T. cruzi Arequipa strain [5]; oral 20 mg/Kg/day for 5 days from 10th dpi, vs untreated control): ~ 65% | parasitaemia undetectable, days before control mice (T. cruzi Arequipa strain [5]; oral 20 mg/Kg/day for 5 days, control detectable up to 50 dpi): 5 days | Selectivity Index T. cruzi Tulahuen Strain E ([6]; IC50 Vero cells/IC50 epimastigotes): 57.4 | IC50 ([6]; Trypanosoma cruzi, TULAHUEN, epimastigotes, 48 h treatment + 24 h resazurin, mean of three ± SD, read-out: Activity IC50 T. cruzi Tulahuen Strain E): 11.4 ± 1.1 µM | Selectivity Index T. cruzi Tulahuen Strain A ([7]; IC50 Vero cells/IC50 amastigotes): 96.3 | IC50 ([7]; Trypanosoma cruzi, TULAHUEN, amastigotes in Vero cells, 72 h, mean of three ± SD): 6.8 ± 0.7 µM
